Measurements published in US20070292492A1, “PHARMACEUTICAL FORMULATIONS FOR IONTOPHORETIC TETRACYCLINE ANTIBIOTIC DELIVERY” (priority 2006, published 2007).
Where a name gives a salt, the structure may show the parent alone. Read-outs that look alike come from different tables or passages of the source.

Legend:
[1] = type: in vitro ADME, hairless rat
Description: • Freshly excised full thickness hairless rat skin (approximately 1 mm thick) was mounted in between the donor and receptor compartments of the horizontal diffusion cells with the stratum corneum facing the donor compartment. • The receptor compartment contained phosphate buffer (4 ml) at pH 7.4, and the donor compartment contained one of the following tetracycline hydrochloride solutions (4 ml): water (pH 2.1, 37 mg/ml), citrate buffer (pH 3.0, 9 mg/ml), phosphate buffer (pH 8.0, 0.7 mg/ml), or Teorell buffer (pH 8.3, 5.9 mg/ml, pH 11.9: 20 mg/ml). • The apparatus was maintained at 32° C., with constant stirring in both the donor and receptor compartments using magnetic stir bars to maintain sink conditions. • Silver/Silver chloride electrodes were used for iontophoresis. The area of skin exposed to the donor was 0.64 cm^2. • Current densities of 0.2 and 0.3 mA/cm^2 were applied for 1 h; and current density of 0.4 mA/cm^2 was applied for 30 min, 1 h and 2 h. Samples were collected for a period of 10 h. Both anodal and cathodal iontophoresis were performed. • At predetermined intervals, 0.5 ml of sample was collected from the receptor chamber and replenished with 0.5 ml of phosphate buffer (pH7.4). Analysis of Tetracycline Hydrochloride: • Samples from the receptor chamber were analyzed for the amount of tetracycline hydrochloride using a Shimadzu HPLC with a reverse phase column (Phenomenex, Luna C18 column with 5μ pore size). • The composition of the mobile phase used was 0.01N oxalic acid and acetonitrile (75:25) at a flow rate of 0.8 ml/min using a detection wavelength of 360 nm. Results: • The cumulative amount of drug permeating through the skin passively at the end of 10 h was 1.7±0.45 μg/cm^2 (FIG. 1). • Iontophoresis improved the delivery of the drug across the skin. i) The cumulative amount permeated through the skin at the end of 10 h by anodal iontophoresis for 1 h was 11.18±2.02 μg/cm^2. ii) The cumulative amount of the drug delivered at the end of 10 h by cathodal iontophoresis for 1 h was 19.65±6.9 μg/cm^2 (FIGS. 1 and 2). The current density used was 0.4 mA/cm^2 in both the cases. • The cumulative amount of drug permeated through the skin increased with an increase in the current density. The cumulative amount of the drug permeated through the skin over 10 hours increased from 5.85±0.72 μg/cm^2 to 19.65±6.9 μg/cm^2 with an increase in the current density from 0.2 mA/cm^2 to 0.4 mA/cm^2 (FIG. 3). • The amount of drug permeated through the skin increased with an increase in the duration of current application. […] For a donor concentration of 10 mg/ml, 22.11 μg/cm^2 of tetracycline hydrochloride permeated through the skin as compared to 8.25 μg/cm^2 delivered from a donor concentration of 2.5 mg/ml (FIG. 5). For all the above studies except anodal iontophoresis, tetracycline hydrochloride solution in borate buffer at pH 9.4 was employed. For anodal iontophoresis, tetracycline hydrochloride in citrate buffer at pH 3.0 has been used.

[2] = In vivo intracutaneous microdialysis with cathodal iontophoresis; parameters: species or system hairless rat; conditions: 10 mg/mL, pH ~9.3; cathodal iontophoresis 200-400 μA/cm^2 for 0.5-4 hours; 4 hours of application time
Description: In vivo microdialysis studies were undertaken to determine the effect of current and time on the transdermal delivery of tetracycline using iontophoresis. The study placed a tetracycline formulation (10 mg/mL, pH ˜9.3) in a cartridge designed for iontophoresis. […] Cathodal iontophoresis current was varied from 200-400 μA/cm^2 for a period of 0.5-4 hours. The microdialysis dialysate samples collected were analyzed using HPLC. Potential skin irritation was monitored using chromameter, laser Doppler velocimetry (LDV) and transepidermal water loss (TEWL).

| Structure (SMILES) | amount of tetracycline hydrochloride permeated through the skin ([1]; hairless, rat, 2.5 mg/ml, pH 9.4) [μg/cm^2] | amount of tetracycline hydrochloride permeated through the skin ([1]; hairless, rat, 10 mg/ml, pH 9.4) [μg/cm^2] | cumulative amount permeated through the skin at the end of 10 h by anodal iontophoresis ([1]; hairless, rat, 10 h, 9 mg/ml, pH 3) [μg/cm^2] | cumulative amount of drug permeating through the skin passively at the end of 10 h ([1]; hairless, rat, 10 h, pH 9.4) [μg/cm^2] | cumulative amount of the drug delivered at the end of 10 h by cathodal iontophoresis ([1]; hairless, rat, 10 h, pH 9.4) [μg/cm^2] | cumulative amount of the drug permeated through the skin over 10 hours ([1]; hairless, rat, 10 h, pH 9.4) [μg/cm^2] | cumulative amount of drug permeated through the skin, cathodal iontophoresis compared to anodal iontophoresis or passive delivery ([1]; pH 9.4) | tetracycline concentration in the skin by microdialysis as a function of duration of current application [2] |
| --- | --- | --- | --- | --- | --- | --- | --- | --- |
| CN(C)[C@@H]1C(O)=C(C(N)=O)C(=O)[C@@]2(O)C(O)=C3C(=O)c4c(O)cccc4[C@@](C)(O)[C@H]3C[C@@H]12 [tetracycline hydrochloride] | 8.25 | 22.11 | 11.18±2.02 | 1.7±0.45 | 19.65±6.9 | 5.85±0.72 | significantly increased | – |
| CN(C)[C@@H]1C(O)=C(C(N)=O)C(=O)[C@@]2(O)C(O)=C3C(=O)c4c(O)cccc4[C@@](C)(O)[C@H]3C[C@@H]12 [tetracycline] | – | – | – | – | – | – | – | highest amount of tetracycline concentration |
